# Source: patent US10881611B2, “Extracellular vesicles derived from osteoblastic lineage cells for therapeutic and diagnostic use” (Fondazione Città Della Speranza—Onlus, priority 2015, dated 2021)
# B1: parathyroid hormone: human recombinant parathyroid hormone used at 10^−8 M to stimulate osteoblasts (protein, UniProt P01270 32-115, looked up)
# Parathyroid hormone: SVSEIQLMHNLGKHLNSMERVEWLRKKLQDVHNFVALGAPLAPRDAGSQRPRKKEDNVLVESHEKSLGEADKADVNVLTKAKSQ
# modifications: Parathyroid hormone
# notes: human recombinant parathyroid hormone used at 10^−8 M to stimulate osteoblasts
# Assays:
# [1] = test system: human osteosarcoma cell lines; test: Cell viability assay (MTT) of human osteosarcoma cell lines; type: cell-based
# Procedure: Osteosarcoma cell lines sensitivity to anti-tumour drug Doxorubicin was evaluated by treating the cells with different Doxorubicin concentrations and carrying out cell viability assay with MTT at different times.
# RANKL+ O-EVs were incubated with Doxorubicin (300 mg/ml) in vitro, then subjected to FACS. RANKL+ O-EV-associated doxorubicin confers red fluorescence to the nanoparticles, enabling FACS isolation thereof (FIG. 11).
# Human osteosarcoma cell lines were treated with free Doxorubicin (235 ng, corresponding to a concentration of 1 micromole/litre in the medium) or with RANKL+ O-EV-associated Doxorubicin (100,000 FACS-isolated nanoparticles, containing 3.2 ng of Doxorubicin, corresponding to a concentration of 10 nanomole/litre in the medium). […] However, the treatment with anti-tumour drug-loaded RANKL+ O-EVs allowed to obtain this effect with a Doxorubicin dose 100-fold lower than the free drug (Table 1 below).
# [2] = test system: mature osteoclasts; test: Mature osteoclasts treated for 48 hours, TRAcP colouring; type: cell-based, mouse
# From the text: Primary mouse osteoclasts are obtained by medullar macrophages differentiation isolated from CD1 long bones of age comprised within 7-10 days. The litter is kept and maintained according to the legal requirements, under the supervision of a veterinary responsible. When experimentally needed, the animals are sacrificed according to the laws and the long bones are explanted and cleaned from soft tissues. The bones are then submitted to mechanical disruption in order to free the bone marrow. The cells obtained are diluted in PBS and stratified 1:1 on Histopaque (Sigma-Aldrich), and centrifuged for 30′ at 450 g. The formed buffy coat is collected and washed with PBS. […] The osteoclastic phenotype is routinely assessed by biochemical assay to tartarate resistant acidic phosphatase positivity on a cell aliquot fixed in PFA/PBS (4% v/v). […]
# The sensitivity of mature osteoclasts to the antitumor medicament doxorubicin has been evaluated by treating the cells with different doxorubicin concentrations (0.1-0.2-0.5-1-2-4 μM) and carrying out TRAcP colouring after fixing. […]
# The sensitivity of mature osteoclasts to the medicament zolendronate has been assessed by treating the cells with different zolendronate concentrations (10^−8, 5×10^−8, 10^−7, 5×10^−7, 10^−6, 5×10^−6, 10^−5, 5×10^−5, 10^−4 M) and carrying out TRAcP colouring after fixing. […]
# [3] = test system: primary osteoblasts; test: FACS evaluation of the RANKL-positive O-EV fraction released by osteoblasts under parathyroid hormone stimulation; type: cell-based, murine; conditions: osteoblasts subjected to parathyroid hormone stimulation (10^−8 M human recombinant), p=0.037; without stimulation 53.06+3.47%
# Procedure: Murine osteoblasts, obtained as previously described, are plated in 150 cm^2 culture flasks and grown in DMEM culture medium containing glutamine (5 mM), penicillin (1 mg/ml), streptomycin (2 mg/ml) and American fetal bovine serum (10% v/v) (FBS), and kept in incubator under 5% CO2. Upon reaching 70% confluence, cells were abundantly washed with PBS (3 times) to remove serum residues, and kept 24 hours in glutamine (5 mM)/penicillin (1 mg/ml), streptomycin (2 mg/ml) DMEM medium. […]
# At the end of the procedure, the pellet obtained is resuspended in […] PBS and incubated with 10 microM CMFDA, at 37° C. for 30 min. The pellet is then brought to maximum volume with PBS in ultra-centrifuge tube, centrifuged at 30,000 RPM for 70 minutes at 4° C., and evaluated for quantity and quality by cytofluorimetric analysis. […]
# FACScanto II (BD Biosciences) was resorted to for cytofluorimetric analysis. […] Moreover, the prescribed fluorescence channel compensations are carried out. […]
# For evaluation of RANKL expression, CMFDA positive RANKL+ O-EV pellet is incubated for 30 min with mouse anti-RANKL antibody conjugated with Phycoerythrin (PE) (1:100) in PBS/BSA (1%). RANKL+ O-EVs are then FACS analysed and CMFDA/PE double-positive fraction is isolated for further evaluations. […]
# [4] = human osteosarcoma cell lines, Table 1
molecule,measurement,setting,value
COc1cccc2c1C(=O)c1c(O)c3c(c(O)c1C2=O)C[C@@](O)(C(=O)CO)C[C@@H]3O[C@H]1C[C@H](N)[C@H](O)[C@H](C)O1 [Doxorubicin],Doxorubicin concentration at which toxicity on tumour cells manifests,"[1]; MTT at different times, osteosarcoma cell lines",> 1 µmol/L
same,death of the neoplastic cells,"[1]; free Doxorubicin 235 ng, 1 micromole/litre in the medium",about 80%
same,Doxorubicin amount giving death of about 80% of the neoplastic cells,[1]; [4],235 ng
same,Doxorubicin concentration in the medium giving death of about 80% of the neoplastic cells,[1]; [4],1 µM
same,doxorubicin concentration above which toxicity on mature osteoclasts shows,[2]; 0.1-4 μM tested,higher than 0.2 micromolar
O=P(O)(O)C(O)(Cn1ccnc1)P(=O)(O)O [zolendronate],zolendronate concentration above which toxicity on mature osteoclasts is shown,[2]; 10^−8 to 10^−4 M tested,higher than 10^−7 M
B1,RANKL-positive O-EV subpopulation,[3],63.6±4.20%
